Measurements reported in paper PMC12728616, “Regioselective Glycosylation of Fluorine-18-Labeled Sorbitol for Enhanced Bacterial Detection In Vivo Using PET” (JACS Au, 2025).

Columns and labels:
[1] = tested on: S. aureus; set-up: method as in previously reported S. aureus sensitive PET tracers; details: S. aureus infection; ref previously reported S. aureus sensitive PET tracers; cited from earlier work
[2] = tested on: Gram-positive bacteria; assay: In vitro uptake of 18F-tracers across the Gram-positive panel; format: cell-based; details: panel of Gram-positive pathogens; FLT/FCT except E. faecalis; FMT versus FNT
Protocol: (§1) In vitro evaluation of ^18F-tracers was conducted according to our established procedure. Briefly, bacteria were incubated overnight at 37 °C, subcultured into a fresh medium at an initial OD600 of 0.05, and then allowed to reach the mid log phase (OD600 ∼ 0.4). The cultures were subsequently incubated with ^18F-tracers (final concentration: 0.1 MBq/mL) at 37 °C for 90 min. Subsequently, 300 μL aliquots of these cultures were centrifuged at 13,200 rpm for 6 min. The resulting pellets were washed with 300 μL of phosphate-buffered saline (PBS). The radioactivity of the pellets and supernatants was measured using a gamma counter. Uptake values were normalized to colony-forming units (CFUs).

[3] = tested on: K. pneumoniae; assay: In vitro uptake of 18F-tracers by bacteria; format: cell-based, Klebsiella pneumoniae
Protocol: as §1

[4] = in vivo; cited from earlier work
[5] = tested on: Enterococcus faecalis; assay: In vitro uptake of 18F-tracers by bacteria; format: cell-based; details: E. faecalis; 37 °C, 90 min
Protocol: as §1

[6] = Dynamic PET/CT and ex vivo biodistribution in uninfected mice; details: uninfected mice
Protocol: To assess the effect of [^18F]-FDS glycosylation on tissue uptake in vivo, we performed dynamic PET/CT scans for 90 min after the intravenous injection of [^18F]-FNT, [^18F]-FMT, and [^18F]-FDS in uninfected mice, followed by ex vivo analysis.
(§2) μPET/CT imaging was conducted using a nanoScan μPET/CT instrument (PET123S/CT1512, Mediso). Mice were anesthetized with 2% isoflurane/oxygen for intravenous administration of ^18F-tracers (∼5 MBq in 150 μL) via tail vein and maintained during data acquisition. PET data of uninfected mice were acquired in the list mode for 90 min, starting immediately after ^18F-tracer administration, followed by a CT scan. The PET data were reconstructed into three-dimensional volumes and coregistered with CT images using manufacturer-provided software in 53 dynamic frames (15 × 2 s, 6 × 5 s, 6 × 10 s, 4 × 30 s, 6 × 30 s, and 16 × 300 s). PET data of infected mice were acquired for 20 min, starting at 70 min postinjection of ^18F-tracer (mid time 80 min), followed by a CT scan. The list mode PET data were reconstructed into three-dimensional volumes in a single static frame. All PET scans were corrected for ^18F decay, dead time, and random coincidences and reconstructed into a 160 × 160 × 184 matrix with voxel size 0.8 mm using a three-dimensional ordered subject expectation maximization (OSEM) algorithm (40 iterations, 1 subset). Both attenuation and scatter corrections were applied to PET reconstructions using the coregistered CT. ROIs were drawn manually around the brain, lungs, liver, kidney, and urinary bladder using Amide software to generate image-derived TACs. For the estimation of blood pool radioactivity over time, ROIs were drawn on the left atrium. To estimate the plasma half-life of tracers, the TAC of the blood pool was fitted to a two-compartment model using a biexponential decay function: C t(t) = Ae ^–αt + Be ^ ‑βt , where C t(t) is the tracer concentration (% IDcc^–1) at time (t), A and B are the intercepts, and α and β are the distribution and elimination rate constants, respectively. , Quantitative uptake values are expressed as % IDcc^–1, representing the percent of the total injected dose per cubic centimeter. For the S. aureus myositis model, identical volume ROIs were drawn corresponding to the peak uptake of [^18F]-FNT at the live S. aureus inoculated site and heat-killed S. aureus inoculated site, respectively.

[7] = tested on: K. pneumoniae; assay: PET/CT in K. pneumoniae pneumonia murine model; format: in vivo, mice
Protocol: Given promising low background signals in uninfected mice, we further evaluated [^18F]-FNT and [^18F]-FMT in two different clinically relevant mouse models of lung and muscle infections. […] PET scanning was performed at 24 h postintranasal bacterial installation (Figure A). […] The ROI-derived infected/uninfected lung ratios of [^18F]-FDS, [^18F]-FMT, and [^18F]-FNT were approximately 3.2, 6.1, and 5.9-fold, respectively (Figure C), also supported by the ex vivo infected/uninfected lung ratio of [^18F]-FDS (∼1.6-fold), [^18F]-FMT (∼5.7-fold), and [^18F]-FNT (∼5.7-fold) (Figure D). Post-PET scans, infected lungs were harvested to determine colony forming units (CFUs). No significant differences in bacterial counts were observed among [^18F]-FDS, [^18F]-FMT, and [^18F]-FNT (Figure E). To confirm radiotracer specificity, we also evaluated mice inoculated with 10x heat-killed K. pneumoniae into lungs (Supporting Information Figure S5A–C).
(§3) All animal procedures were conducted in accordance with UCSF institutional guidelines and were approved by the Institutional Animal Care and Use Committee (IACUC). Female CBA/J mice (9 and 11 weeks old) were used for the study. Pulmonary infection and bacterial myositis models were established based on previously published protocols. , For pulmonary infection, 50 μL of K. pneumoniae (5 × 10^6 CFU) or 10× heat-killed K. pneumoniae were administered intranasally under anesthesia 24 h prior to imaging using PET. After PET scans, infected lungs were homogenized in PBS and plated on LB agar. Plates were incubated overnight at 37 °C to quantify the bacterial burden. For the bacterial myositis model, mice were intramuscularly injected with either 1 × 10^6 CFUs of live S. aureus (MSSA or MRSA) or 1 × 10^7 CFUs of heat-killed bacteria (50 μL) into the left and right deltoid muscles, respectively, 10 h prior to imaging using PET. Immediately following all imaging studies, target tissues were harvested, and radioactivity was measured using a gamma counter.
as §2, with “For the S. aureus myositis model, identical volume ROIs were drawn corresponding to the peak uptake of [^18F]-FNT at the live S. aureus inoculated site and heat-killed S. aureus inoculated site, respectively.” left out

[8] = tested on: MRSA; assay: PET/CT in MRSA myositis murine model; format: in vivo, mice; details: MRSA myositis
Protocol: We next compared [^18F]-FNT and [^18F]-FMT PET in a S. aureus myositis model. […] To compare the in vivo detection sensitivity of [^18F]-FNT and [^18F]-FMT in a MRSA myositis model, we injected the left deltoid with live MRSA and the right deltoid with 10x heat-killed MRSA, respectively (Figure B).
as §3, with “For the bacterial myositis model, mice were intramuscularly injected with either 1 × 10^6 CFUs of live S. aureus (MSSA or MRSA) or 1 × 10^7 CFUs of heat-killed bacteria (50 μL) into the left and right deltoid muscles, respectively, 10 h prior to imaging using PET.” left out
as §2

[9] = blood pool TAC, two-compartment fit

Nc1ccc(C(=O)O)c([18F])c1 [2-[18F]F-PABA]
target-to-nontarget ratio [1]: ~8 fold

[11CH3][C@@H](N)C(=O)O [D-[3-11C]Ala]
target-to-nontarget ratio [1]: ~4 fold

N[C@H](CC[11C](N)=O)C(=O)O [D-[5-11C]-Gln]
target-to-nontarget ratio [1]: ~2.3 fold

[11CH3]SCC[C@@H](N)C(=O)O [D-[11C]Met]
target-to-nontarget ratio [1]: ~10 fold

[2H]C([2H])([18F])[C@@]([2H])(N)C(=O)O [D-[18F]FAla-d3]
target-to-nontarget ratio [1]: ~2.4 fold

N[C@H](C[18F])C(=O)O [D-[18F]FAla]
target-to-nontarget ratio [1]: ~2 fold

Nc1ccc([11C](=O)O)cc1 [[11C]PABA]
target-to-nontarget ratio [1]: ~28 fold

OC[C@@H](O)[C@@H](O[C@@H]1O[C@H](CO)[C@@H](O)[C@H](O)[C@H]1O)[C@H](O)[C@@H]([18F])CO [[18F]FCT, 2-deoxy-2-[18F]fluoro-D-cellobiotol]
in vitro uptake in Gram-positive bacteria [2]: negligible uptake | in vitro uptake [3]: poorly taken up

OC[C@H]1OC(O)[C@H]([18F])[C@@H](O)[C@@H]1O (stereo partly drawn) [[18F]FDG]
known effective dose [4]: 0.017 mSv/MBq

OCC1OC(OC2C(CO)OC(O)C([18F])C2O)C(O)C(O)C1O (stereo not drawn) [[18F]FDM]
target-to-nontarget ratio [1]: ~6 fold

OC[C@@H](O)[C@@H](O)[C@H](O)[C@@H]([18F])CO [[18F]FDS, 2-deoxy-2-[18F]fluoro-D-sorbitol, reference compound]
in vitro uptake [5]: accumulated | in vitro uptake in Gram-positive bacteria [2]: not taken up | area under the curve (AUC0→90min) in bladder ([6]; i.v.): 36165.8 ± 3961.5 % IDcc^–1·min | area under the curve (AUC0→90min) in liver ([6]; i.v.): 289.4 ± 21.3 % IDcc^–1·min | peak uptake (Cmax) in bladder ([6]; i.v., dynamic PET 90 min): 525.5 ± 37.0 % IDcc^–1 | peak uptake (Cmax) in kidneys ([6]; i.v., dynamic PET 90 min): 71.3 ± 9.7 % IDcc^–1 | peak uptake (Cmax) in liver ([6]; i.v., dynamic PET 90 min): 28.6 ± 5.0 % IDcc^–1 | elimination half-life (T1/2β) [6, 9]: 18.74 min | plasma distribution half-life (T1/2α) [6, 9]: 0.43 min | ex vivo infected/uninfected lung ratio ([7]; ex vivo gamma counting after PET): ~1.6 fold | ROI-derived infected/uninfected lung ratio ([7]; in vivo PET, 80 min postinjection (mid time), 24 h after intranasal K. pneumoniae): approximately 3.2 fold

OC[C@@H](O)[C@@H](O)[C@H](O)[C@H]([18F])CO [[18F]FMtl]
target-to-nontarget ratio [1]: ~4 fold

OCC1OC(OC2C(O)C(CO)OC(O)C2[18F])C(O)C(O)C1O (stereo not drawn) [[18F]FSK, reference compound]
ratio of live/heat-killed S. aureus inoculated sites, in vivo ([8]; PET 80 min postinjection (mid time)): 28 fold | ratio of live/heat-killed S. aureus inoculated sites, ex vivo ([8]; ex vivo analysis): 17 fold | target-to-nontarget ratio [1]: ~7 fold

OCCOCc1ccc(-c2noc(-c3ccc(OCC[18F])c(C(F)(F)F)c3)n2)cc1 [[18F]TZ4877]
target-to-nontarget ratio [1]: ~1.3 fold
